The values below come from US10399953B2, “Preparation of furan fatty acids from 5-(chloromethyl)furfural” (THE REGENTS OF THE UNIVERSITY OF CALIFORNIA, priority 2015, dated 2019).

This assay can be described thus: 2,2-diphenyl-1-picrylhydrazyl (DPPH) radical scavenging assay. Particulars: for DPPH Scavenging %: 30 minutes, room temperature, dark, absorption at 517 nm; for antioxidant activity (quenching of the DPPH radical), in words: 25, 50 and 100 μg/mL. It counts as biochemical. The source says: The antioxidant activity of the FFAs has been evaluated by a range of methods, including spin trapping of N-oxide radicals (Okada et al. (1996) Biol. Pharm. Bull. 19: 1607), inhibition of radically initiated oxygen uptake in linoleic acid (Okada et al. (1990) J. Am. Oil Chem. Soc. 67: 858) and unsaturated fatty acid moieties of phosphatidyl choline liposomes (Ishii et al. (1989) Chem. Pharm. Bull. 37: 1396), and acting as a substrate for plant lipoxygenase (Batna and Spiteller (1994) Lipids 29: 397). We have evaluated the free radical scavenging abilities of synthetic FFAs 5a (n=1, m=9, R^1=R^2=H) and 5b (n=1, m=9, R^1=R^2=Me) against butylated hydroxytoluene (BHT) by 2,2-diphenyl-1-picrylhydrazyl (DPPH) assay.
The method of Moon and Shibamoto (Moon and Shibamoto (2009) J. Agric. Food Chem. 57: 1655) was used to evaluate antioxidant activity. DPPH (0.0177 g) was dissolved in methanol (MeOH) (100 mL) and 500 μL of this solution was added into test tubes containing 11-(5-propylfuran-2-yl)undecanoic acid and 11-(3,4-dimethyl-5-propylfuran-2-yl)undecanoic acid at concentrations of 25, 50, and 100 μg/mL after dilution of stock solutions with MeOH to 1.0 mL total volume. A 1.0 mg/mL BHT stock solution (100 μL) was diluted with 400 μL methanol and the DPPH solution (500 μL). A control solution was prepared by adding methanol (500 μL) into the DPPH solution (500 μL), and a methanol blank was used for the baseline correction. The tubes were allowed to stand at room temperature in the dark for 30 minutes and the change in the absorption at 517 nm was measured by UV-visible spectrometry. Radical scavenging ability was expressed as DPPH scavenging % and calculated using this formula: DPPH scavenging %=(control abs.−sample abs./control abs.)×100.

Structures are written as SMILES.

In the case of `Cc1cc(C(C)(C)C)c(O)c(C(C)(C)C)c1` [BHT, butylated hydroxytoluene, reference compound], under “100 μg/mL”, the “inhibition (DPPH assay)” value came to 93% and the “DPPH Scavenging %” value is 93%.
For the compound `CCCc1ccc(CCCCCCCCCCC(=O)O)o1` [Compound 5a, 11-(5-Propylfuran-2-yl)undecanoic Acid], the “antioxidant activity (quenching of the DPPH radical), in words” value is given as “virtually no antioxidant activity”. Further, the “DPPH Scavenging %” value (25 μg/mL) is 4%. In addition, the “DPPH Scavenging %” value (50 μg/mL) is reported as −2%. Also, the “DPPH Scavenging %” value (100 μg/mL) was −3%.
For the compound `CCCc1oc(CCCCCCCCCCC(=O)O)c(C)c1C` [Compound 5b, 11-(3,4-Dimethyl-5-propylfuran-2-yl)undecanoic Acid], the “antioxidant activity (quenching of the DPPH radical), in words” value is “concentration-dependent quenching of the DPPH radical”. For the same compound, under “25 μg/mL”, the “DPPH Scavenging %” value turned out to be 7%. Besides, the “DPPH Scavenging %” value (50 μg/mL) was found to be 27%. Further, where the note is “100 μg/mL”, the “inhibition (DPPH assay)” value came to 53% and the “DPPH Scavenging %” value is recorded as 53%. In addition, the “antioxidant power relative to BHT on a mass basis” value (of BHT, mass basis, 100 μg/mL) is 57%. Besides, the “antioxidant power relative to BHT based on molar concentrations” value (of BHT, recalculated on molar concentrations) is reported as 83%.
